# In patent US12577217B2, “15-PGDH inhibitor” (KYORIN Pharmaceutical Co., Ltd., priority 2019, dated 2026):
# Target: T1, recombinant human 15-PGDH (Homo sapiens, UniProt P15428)
# T1 construct: purchased R&D Systems
# T1 sequence (P15428 1-266): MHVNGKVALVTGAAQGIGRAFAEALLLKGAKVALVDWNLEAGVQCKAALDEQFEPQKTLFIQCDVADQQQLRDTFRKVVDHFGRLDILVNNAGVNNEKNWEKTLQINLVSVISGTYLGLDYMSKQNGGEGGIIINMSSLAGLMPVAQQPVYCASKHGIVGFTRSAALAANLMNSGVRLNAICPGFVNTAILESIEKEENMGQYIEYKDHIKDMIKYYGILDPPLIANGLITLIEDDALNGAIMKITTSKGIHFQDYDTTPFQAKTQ
# Test: 15-PGDH enzyme inhibition test
# Format: biochemical
# Details: 4 nM recombinant human 15-PGDH, 30 μM PGE2, 1 mM NAD+, 60 minutes after starting the reaction; read-out: IC50 Value
# Summary of the method: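 4 nM recombinant human enzyme pre-incubated with compound 12 min at room temperature in 50 mM Tris-HCl pH 8.0 with 0.01% Tween 20 and 0.01% bovine gamma globulin. Reaction started with 30 μM PGE2 and 1 mM NAD+, read after 60 min by fluorescence (ex 340/em 440 nm). IC50 from concentration-response curve.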
row,SMILES,IC50
1,Cn1nc2cc(N3CCOc4cc(C(=O)N5CCCC6(CCO6)C5)cnc43)ccn2c1=O (centres unmarked) [Example 8-51],10 to 100 nM
2,Cn1nc2cc(N3CCOc4cc(C(=O)N5CCCC6(COC6)C5)cnc43)ccn2c1=O [Example 8-52],10 to 100 nM
3,Cn1nc2cc(N3CCCOc4cc(C(=O)N5CCC[C@@H](F)C5)cnc43)ccn2c1=O [Example 8-62],< 10 nM
4,Cn1nc2cc(N3CCCOc4cc(C(=O)N5CCC[C@H](F)C5)cnc43)ccn2c1=O [Example 8-63],< 10 nM
5,Cn1nc2cc(N3CCCOc4cc(C(=O)N5CCC(F)(F)CC5)cnc43)ccn2c1=O [Example 8-64],< 10 nM
6,Cn1nc2cc(N3CCOc4cc(C(=O)N5CCC[C@H](CF)C5)cnc43)ccn2c1=O [Example 8-65],< 10 nM
7,Cn1nc2cc(N3CCOc4cc(C(=O)N5CCC[C@@H](CF)C5)cnc43)ccn2c1=O [Example 8-66],< 10 nM
8,Cn1nc2cc(N3CCOc4cc(C(=O)N5CCCC6(CCC6)C5)cnc43)ccn2c1=O [Example 8-67],< 10 nM
9,CCN1Cc2cc(N3CCCc4cc(C(=O)N5CCC5)cnc43)ccc2C1=O [Example 8-68],< 10 nM
10,CCN1Cc2cc(N3CCCc4cc(C(=O)N5CCCC5)cnc43)ccc2C1=O [Example 8-69],< 10 nM
11,CCN1Cc2cc(N3CCCc4cc(C(=O)N5CCCCCC5)cnc43)ccc2C1=O [Example 8-70],< 10 nM
12,CCN1Cc2cc(N3CCCc4cc(C(=O)N5CCCCCCC5)cnc43)ccc2C1=O [Example 8-71],< 10 nM
13,CCN1Cc2cc(N3CCCc4cc(C(=O)N5CCOCC5)cnc43)ccc2C1=O [Example 8-72],< 10 nM
14,CCN1Cc2cc(N3CCCc4cc(C(=O)N5CCN(C)CC5)cnc43)ccc2C1=O [Example 8-73],< 10 nM
15,CCN1Cc2cc(N3CCCc4cc(C(=O)N5CCN(C(C)=O)CC5)cnc43)ccc2C1=O [Example 8-74],> 100 nM
16,CCN1Cc2cc(N3CCCc4cc(C(=O)N5CC=CCC5)cnc43)ccc2C1=O [Example 8-75],< 10 nM
17,CCN1Cc2cc(N3CCCc4cc(C(=O)N5CCc6ccccc6C5)cnc43)ccc2C1=O [Example 8-76],< 10 nM
18,CCN1Cc2cc(N3CCCc4cc(C(=O)N5Cc6ccccc6C5)cnc43)ccc2C1=O [Example 8-77],< 10 nM
19,CCN1Cc2cc(N3CCCc4cc(C(=O)N5CCCC[C@H]5C)cnc43)ccc2C1=O [Example 8-78],< 10 nM
20,CCN1Cc2cc(N3CCCc4cc(C(=O)N5CCCC[C@@H]5C)cnc43)ccc2C1=O [Example 8-79],< 10 nM
21,CCN1Cc2cc(N3CCCc4cc(C(=O)N5CCC(C)CC5)cnc43)ccc2C1=O [Example 8-80],< 10 nM
22,CCN1Cc2cc(N3CCCc4cc(C(=O)N5CCCC(C)(F)C5)cnc43)ccc2C1=O (centres unmarked) [Example 8-81],< 10 nM

row,SMILES,IC50
1,CCN1Cc2cc(N3CCCc4cc(C(=O)N5CCC(F)(F)C(C)C5)cnc43)ccc2C1=O (centres unmarked) [Example 8-82],< 10 nM
2,CCN1Cc2cc(N3CCCc4cc(C(=O)N5CCC[C@@H](F)C5)cnc43)ccc2C1=O [Example 8-83],< 10 nM
3,CCN1Cc2cc(N3CCCc4cc(C(=O)N5CCC[C@H](F)C5)cnc43)ccc2C1=O [Example 8-84],< 10 nM
4,CCN1Cc2cc(N3CCCc4cc(C(=O)N5CCCC(F)(F)C5)cnc43)ccc2C1=O [Example 8-85],< 10 nM
5,CCN1Cc2cc(N3CCCc4cc(C(=O)N5CCC(F)CC5)cnc43)ccc2C1=O [Example 8-86],< 10 nM
6,CCN1Cc2cc(N3CCCc4cc(C(=O)N5CCC[C@@H](C(F)(F)F)C5)cnc43)ccc2C1=O [Example 8-87],< 10 nM
7,CCN1Cc2cc(N3CCCc4cc(C(=O)N5CCC[C@H](C(F)(F)F)C5)cnc43)ccc2C1=O [Example 8-88],< 10 nM
8,CCN1Cc2cc(N3CCCc4cc(C(=O)N5CCC[C@@H](C)C5)cnc43)ccc2C1=O [Example 8-89],< 10 nM
9,CCN1Cc2cc(N3CCCc4cc(C(=O)N5CCC[C@H](C)C5)cnc43)ccc2C1=O [Example 8-90],< 10 nM
10,CCN1Cc2cc(N3CCCc4cc(C(=O)N5CCC[C@@H](CF)C5)cnc43)ccc2C1=O [Example 8-91],< 10 nM
11,CCN1Cc2cc(N3CCCc4cc(C(=O)N5CCC[C@H](CF)C5)cnc43)ccc2C1=O [Example 8-92],< 10 nM
12,CCN1Cc2cc(N3CCCc4cc(C(=O)N5CCC[C@@H](C(F)F)C5)cnc43)ccc2C1=O [Example 8-93],< 10 nM
13,CCN1Cc2cc(N3CCCc4cc(C(=O)N5CCC[C@H](C(F)F)C5)cnc43)ccc2C1=O [Example 8-94],< 10 nM
14,Cn1nc2cc(N3CCOc4cc(C(=O)N5CCCC6(C5)CC(F)(F)C6)cnc43)ccn2c1=O [Example 8-95],10 to 100 nM
15,O=C(c1cnc2c(c1)CCCN2c1ccc2c(=O)[nH]cnc2c1)N1CCC(F)(F)CC1 [Example 8-96],< 10 nM
16,Cn1nc2cc(N3CCOc4cc(C(=O)N5CC6CCC6C5)cnc43)ccn2c1=O (centres unmarked) [Example 8-97],< 10 nM
17,Cn1nc2cc(N3CCOc4cc(C(=O)N5C[C@H]6CCC[C@H]6C5)cnc43)ccn2c1=O [Example 8-98],< 10 nM
18,Cn1nc2cc(N3CCOc4cc(C(=O)N5CC6CC6C5)cnc43)ccn2c1=O (centres unmarked) [Example 8-99],< 10 nM
19,Cn1nc2cc(N3CCOc4cc(C(=O)N5CCC(C)(C)C5)cnc43)ccn2c1=O [Example 8-100],< 10 nM
20,Cn1nc2cc(N3CCOc4cc(C(=O)N5CCC(C(F)(F)F)CC5)cnc43)ccn2c1=O [Example 8-101],< 10 nM
21,Cn1nc2cc(N3CCOc4cc(C(=O)N5CCCCCC5)cnc43)ccn2c1=O [Example 8-102],< 10 nM
22,Cn1nc2cc(N3CCOc4cc(C(=O)N5Cc6ccccc6C5)cnc43)ccn2c1=O [Example 8-103],< 10 nM

# Other lines, results leading:
row,IC50,SMILES
1,< 10 nM,Cn1nc2cc(N3CCOc4cc(C(=O)N5CC(F)(F)C5)cnc43)ccn2c1=O [Example 8-30]
2,< 10 nM,C[C@@H]1CCCN(C(=O)c2cnc3c(c2)OCCN3c2ccn3c(=O)n(C)nc3c2)C1 [Example 8-31]
3,< 10 nM,C[C@@H]1CCN(C(=O)c2cnc3c(c2)OCCN3c2ccn3c(=O)n(C)nc3c2)C1 [Example 8-32]
4,< 10 nM,Cn1nc2cc(N3CCOc4cc(C(=O)N5CCC[C@@H](O)C5)cnc43)ccn2c1=O [Example 8-33]
5,< 10 nM,C[C@H]1CCCN(C(=O)c2cnc3c(c2)OCCN3c2ccn3c(=O)n(C)nc3c2)C1 [Example 8-34]
6,< 10 nM,C[C@H]1CCN(C(=O)c2cnc3c(c2)OCCN3c2ccn3c(=O)n(C)nc3c2)C1 [Example 8-35]
7,< 10 nM,COC(=O)C1CCCN(C(=O)c2cnc3c(c2)OCCN3c2ccn3c(=O)n(C)nc3c2)C1 (centres unmarked) [Example 8-36]
8,< 10 nM,COC(=O)C1CN(C(=O)c2cnc3c(c2)OCCN3c2ccn3c(=O)n(C)nc3c2)C1 [Example 8-37]
9,< 10 nM,Cn1nc2cc(N3CCOc4cc(C(=O)N5CCC[C@H](O)C5)cnc43)ccn2c1=O [Example 8-38]
10,< 10 nM,Cn1nc2cc(N3CCOc4cc(C(=O)N5C[C@@H]6CC[C@@H](C6)C5)cnc43)ccn2c1=O [Example 8-39]
11,< 10 nM,Cn1nc2cc(N3CCOc4cc(C(=O)N5C[C@H]6C[C@@H](C5)C6)cnc43)ccn2c1=O [Example 8-40]
12,< 10 nM,C[C@@H]1C[C@H](C)CN(C(=O)c2cnc3c(c2)OCCN3c2ccn3c(=O)n(C)nc3c2)C1 [Example 8-41]
13,< 10 nM,Cn1nc2cc(N3CCOc4cc(C(=O)N5CCCC6(CC6)C5)cnc43)ccn2c1=O [Example 8-42]
14,< 10 nM,CCC1CCCN(C(=O)c2cnc3c(c2)OCCN3c2ccn3c(=O)n(C)nc3c2)C1 (centres unmarked) [Example 8-43]
15,< 10 nM,CC1CCN(C(=O)c2cnc3c(c2)OCCN3c2ccn3c(=O)n(C)nc3c2)CC1 [Example 8-44]
16,< 10 nM,Cn1nc2cc(N3CCOc4cc(C(=O)N5CCC6(CC5)CC6)cnc43)ccn2c1=O [Example 8-45]
17,< 10 nM,Cn1nc2cc(N3CCOc4cc(C(=O)N5CCC6CC6C5)cnc43)ccn2c1=O (centres unmarked) [Example 8-46]
18,< 10 nM,CC1CN(C(=O)c2cnc3c(c2)OCCN3c2ccn3c(=O)n(C)nc3c2)CCC1(F)F (centres unmarked) [Example 8-47]
19,< 10 nM,Cn1nc2cc(N3CCOc4cc(C(=O)N5CCCC(C)(F)C5)cnc43)ccn2c1=O (centres unmarked) [Example 8-48]
20,< 10 nM,Cn1nc2cc(N3CCOc4cc(C(=O)N5CCOC6(CC6)C5)cnc43)ccn2c1=O [Example 8-49]
21,< 10 nM,Cn1nc2cc(N3CCOc4cc(C(=O)N5CC(C)(F)C5)cnc43)ccn2c1=O [Example 8-50]
22,< 10 nM,Cn1nc2cc(N3CCOc4nc(C(=O)N5CCCCC5)ccc43)ccn2c1=O [Example 8-53]
23,< 10 nM,Cn1nc2cc(N3CCOc4cc(C(=O)N5CCCC6CC65)cnc43)ccn2c1=O (centres unmarked) [Example 8-54]
24,< 10 nM,CCN(C)C(=O)c1cnc2c(c1)OCCN2c1ccn2c(=O)n(C)nc2c1 [Example 8-55]
25,< 10 nM,Cn1nc2cc(N3CCOc4cc(C(=O)N5[C@@H]6CCC[C@H]5CC6)cnc43)ccn2c1=O [Example 8-56]
26,< 10 nM,Cn1nc2cc(N3CCCOc4cc(C(=O)N5CCC5)cnc43)ccn2c1=O [Example 8-57]
27,< 10 nM,Cn1nc2cc(N3CCCOc4cc(C(=O)N5CCCC5)cnc43)ccn2c1=O [Example 8-58]
28,< 10 nM,Cn1nc2cc(N3CCCOc4cc(C(=O)N5CCCCCC5)cnc43)ccn2c1=O [Example 8-59]
29,< 10 nM,C[C@@H]1CCCN(C(=O)c2cnc3c(c2)OCCCN3c2ccn3c(=O)n(C)nc3c2)C1 [Example 8-60]
30,< 10 nM,C[C@H]1CCCN(C(=O)c2cnc3c(c2)OCCCN3c2ccn3c(=O)n(C)nc3c2)C1 [Example 8-61]
